One assay deals with T1, DLK (Homo sapiens, UniProt Q12852).
T1 construct: 10 nM DLK, catalytic domain, Carna Biosiences; purchased Carna Biosciences ('Carna Biosiences' [sic])
T1 sequence (Q12852 125-366 limits assumed): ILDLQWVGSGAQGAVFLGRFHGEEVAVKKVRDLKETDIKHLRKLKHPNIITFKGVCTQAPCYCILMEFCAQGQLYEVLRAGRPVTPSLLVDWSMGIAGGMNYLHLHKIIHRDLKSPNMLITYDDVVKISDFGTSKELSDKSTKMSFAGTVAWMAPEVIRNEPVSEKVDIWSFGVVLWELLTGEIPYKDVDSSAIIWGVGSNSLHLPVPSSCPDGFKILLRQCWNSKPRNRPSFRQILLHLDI
Nature of the assay: DLK biochemical assay (TR-FRET, MKK7 phosphorylation). As to conditions: DLK catalytic domain, MKK7 substrate, 60 μM ATP. In short, it runs like this: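 Human DLK activity measured as phosphorylation of His-tagged MKK7 at T275/S277, detected by TR-FRET between Eu-anti-phospho-MKK7 donor (excitation 340 nm) and XL665-anti-His acceptor (665 nm). Signal taken as the XL665/Eu ratio. Detection buffer: 25 mM Tris/HCl pH 7.5, 100 mM EDTA, 100 mM NaCl, 200 mM KF, 0.01% Tween 20.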
On the technique in general: In TR-FRET formats the signal depends on donor and acceptor labels being close together.

A further assay addresses T2, LZK (Homo sapiens, UniProt O43283).
T2 construct: 10 nM LZK, catalytic domain, Carna Biosiences in assay buffer; purchased Carna Biosciences ('Carna Biosiences' [sic])
T2 sequence (O43283 168-409 limits assumed): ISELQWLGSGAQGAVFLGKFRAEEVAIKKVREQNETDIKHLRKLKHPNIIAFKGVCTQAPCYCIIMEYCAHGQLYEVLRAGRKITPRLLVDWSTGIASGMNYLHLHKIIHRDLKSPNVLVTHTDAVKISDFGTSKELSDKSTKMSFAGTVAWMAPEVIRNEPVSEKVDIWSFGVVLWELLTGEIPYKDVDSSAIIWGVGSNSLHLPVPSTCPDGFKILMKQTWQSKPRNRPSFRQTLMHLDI
The experiment in a line: LZK biochemical assay (TR-FRET, MKK7 phosphorylation). The note with it: LZK catalytic domain, MKK7 substrate, 15 μM ATP.

By IC50 is commonly meant the concentration that gives 50% inhibition. Read a high IC50 as weaker potency.

`CC[C@@H](c1ccc(F)cc1)n1cc(-c2cc(C(=O)NC(C)CF)n3nc(N)nc3c2)cn1` (single isomer, unassigned) [Example I-149, 2-Amino-7-{1-[(15)-1-(4-fluorophenyl)propyl]-1H-pyrazol-4-yl}-N-(1-fluoropropan-2-yl)[1,2,4]triazolo[1,5-a]pyridine-5-carboxamide]: the results for the IC50 on DLK and on LZK were 1.7 nM and 13 nM, respectively.
`CC[C@H](C)NC(=O)c1cc(-c2cnn(C3CCCc4cccnc43)c2)cc2nc(N)nn12` (mixture of isomers) [Example I-22, 2-Amino-N-[(2S)-butan-2-yl]-7-[1-(5,6,7,8-tetrahydroquinolin-8-yl)-1H-pyrazol-4-yl][1,2,4]triazolo[1,5-a]pyridine-5-carboxamide]: the half-inhibitory concentration (IC50) was found to be 27 nM against DLK and 13 nM against LZK.
The corresponding values for `CC[C@H](C)NC(=O)c1cc(-c2cnn(C3CCCc4ccncc43)c2)cc2nc(N)nn12` (mixture of isomers) [Example I-21, 2-Amino-N-[(2S)-butan-2-yl]-7-[1-(5,6,7,8-tetrahydroisoquinolin-8-yl)-1H-pyrazol-4-yl][1,2,4]triazolo[1,5-a]pyridine-5-carboxamide] are 33 nM and 5.1 nM.
On to `CC[C@H](C)NC(=O)c1cc(-c2cnn(Cc3cccc4cn[nH]c34)c2)cc2nc(N)nn12` (single isomer, unassigned) [Example I-50], for which the values for the IC50 against DLK and against LZK were 1.6 nM and 25 nM, respectively.
Consider `CC[C@H](C)NC(=O)c1cc(-c2cnn(C(c3ccc(C(F)(F)F)nc3)C3CC3)c2)cc2nc(N)nn12` (single isomer, unassigned) [Example I-108], for which the values for the IC50 against DLK and on LZK were 28 nM and 17 nM, respectively.
The corresponding values for `CC(C)C(c1ccc(F)cc1)n1cc(-c2cc(C(=O)N[C@@H](C)CO)c3nc(N)nn3c2)cn1` (mixture of isomers) [Example I-160, 2-Amino-6-{1-[1-(4-fluorophenyl)-2-methylpropyl]-1H-pyrazol-4-yl}-N-[(2S)-1-hydroxypropan-2-yl][1,2,4]triazolo[1,5-a]pyridine-8-carboxamide] are 4.3 nM and 130 nM.
The corresponding values for `CC[C@H](C)NC(=O)c1cc(-c2cnn(C(c3ccc(C(F)(F)F)nc3)C(C)C)c2)cn2nc(N)nc12` (single isomer, unassigned) [Example I-74] are 10 nM and 16 nM.
As for `CC[C@@H](c1ccc(F)cc1)n1cc(-c2cc(C(=O)NC(C)CF)n3nc(N)nc3c2)cn1` (single isomer, unassigned) [Example I-150, 2-Amino-7-{1-[(15)-1-(4-fluorophenyl)propyl]-1H-pyrazol-4-yl}-N-(1-fluoropropan-2-yl)[1,2,4]triazolo[1,5-a]pyridine-5-carboxamide], the 50% inhibitory concentration (IC50) turned out to be 6.5 nM against DLK and 60 nM at LZK.
The corresponding values for `CCC(c1ccc(C(F)(F)F)nc1)n1cc(-c2cc(C(=O)NC(C)(C)CO)c3nc(N)nn3c2)cn1` (single isomer, unassigned) [Example I-165, 2-Amino-N-(1-hydroxy-2-methylpropan-2-yl)-6-(1-{1-[6-(trifluoromethyl)pyridin-3-yl]propyl}-1H-pyrazol-4-yl)[1,2,4]triazolo[1,5-a]pyridine-8-carboxamide] are 64 nM and 190 nM.
As for `CC[C@H](C)NC(=O)c1cc(-c2cnn(C(c3ccnc(OC)c3)C(C)C)c2)cc2nc(N)nn12` (mixture of isomers) [Example I-126, 2-Amino-N-[(2S)-butan-2-yl]-7-{1-[1-(2-methoxypyridin-4-yl)-2-methylpropyl]-1H-pyrazol-4-yl}[1,2,4]triazolo[1,5-a]pyridine-5-carboxamide], the values for the 50% inhibitory concentration (IC50) against DLK and on LZK were 0.2 nM and 1.3 nM, respectively.
As for `CC[C@H](C)NC(=O)c1cc(-c2cnn(C3CCc4ccccc43)c2)cn2nc(N)nc12` (single isomer, unassigned) [Example I-15], the 50% inhibitory concentration (IC50) on DLK came to 31 nM; at LZK, 7.8 nM.
